Laboratory results taken from ChEMBL document CHEMBL1201862, “PubChem BioAssay data set” (2004).
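The compound was tested at five concentrations on cells cultured in 96-well plates, with a 48-hour exposure period. GI50 is the concentration that inhibits growth by half.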 Active and inactive are the calls of the source. Rule as the data show it: active = GI50 up to about 1.1 µM and inactive = higher.

Legend:
Assay in all cases: inhibition of tumour cell growth, NCI panel, 48 h
786-0 = tested on: 786-0
A498 = tested on: A498
COLO 205 = tested on: COLO 205
IGROV-1 = tested on: IGROV-1
LOX IMVI = tested on: LOX IMVI
Malme-3M = tested on: Malme-3M
OVCAR-4 = tested on: OVCAR-4
SF-268 = tested on: SF-268
SK-MEL-2 = tested on: SK-MEL-2
SK-MEL-5 = tested on: SK-MEL-5
SK-OV-3 = tested on: SK-OV-3
SN12C = tested on: SN12C
SNB-75 = tested on: SNB-75
SW-620 = tested on: SW-620
U-251 = tested on: U-251
UACC-62 = tested on: UACC-62
RXF 393 = tested on: RXF 393

SMILES	GI50 (786-0)	GI50 (A498)	GI50 (COLO 205)	GI50 (IGROV-1)	GI50 (LOX IMVI)	GI50 (Malme-3M)	GI50 (OVCAR-4)	GI50 (SF-268)	GI50 (SK-MEL-2)	GI50 (SK-MEL-5)	GI50 (SK-OV-3)	GI50 (SN12C)	GI50 (SNB-75)	GI50 (SW-620)	GI50 (U-251)	GI50 (UACC-62)	GI50 (RXF 393)
CN(C)CCNc1ccc2ncn3c4ccccc4c(=O)c1c23	2.03 µM (inactive)	6.93 µM (inactive)	0.94 µM (active)	2.42 µM (inactive)	1.15 µM (inactive)	2.34 µM (inactive)	1.99 µM (inactive)	1.91 µM (inactive)	2.99 µM (inactive)	2.74 µM (inactive)	2.09 µM (inactive)	2.9 µM (inactive)	3.25 µM (inactive)	0.826 µM (active)	3.02 µM (inactive)	3.22 µM (inactive)	–
C=CCO/N=C(\OC(=O)c1ccc([N+](=O)[O-])cc1)c1ccccc1	> 100 µM (inactive)	> 100 µM (inactive)	> 100 µM (inactive)	> 100 µM (inactive)	–	> 100 µM (inactive)	> 100 µM (inactive)	> 100 µM (inactive)	> 100 µM (inactive)	> 100 µM (inactive)	> 100 µM (inactive)	> 100 µM (inactive)	> 100 µM (inactive)	> 100 µM (inactive)	> 100 µM (inactive)	> 100 µM (inactive)	–
C/C(=N\Nc1ccc([N+](=O)[O-])cc1)C(=O)N(C)Nc1ccccc1	> 100 µM (inactive)	29 µM (inactive)	58.3 µM (inactive)	58.9 µM (inactive)	64.4 µM (inactive)	–	47.2 µM (inactive)	–	29.1 µM (inactive)	–	> 100 µM (inactive)	74 µM (inactive)	27.6 µM (inactive)	> 100 µM (inactive)	62.1 µM (inactive)	45.2 µM (inactive)	58.1 µM (inactive)
CC12CCC[C@@](C)(C(=O)OC3OC(CO)C(O)C(O)C3O)[C@H]1CCC13CC4CC(OC4(CO)[C@H]1O)[C@@H]23 (stereo partly drawn)	> 100 µM (inactive)	> 100 µM (inactive)	–	> 100 µM (inactive)	–	> 100 µM (inactive)	> 100 µM (inactive)	> 100 µM (inactive)	> 100 µM (inactive)	> 100 µM (inactive)	> 100 µM (inactive)	> 100 µM (inactive)	> 100 µM (inactive)	14.5 µM (inactive)	> 100 µM (inactive)	> 100 µM (inactive)	> 100 µM (inactive)
NC(=S)N/N=C1\CCCC\C1=C/c1ccccc1	63.8 µM (inactive)	> 100 µM (inactive)	65.6 µM (inactive)	25.2 µM (inactive)	> 100 µM (inactive)	60.8 µM (inactive)	27 µM (inactive)	54 µM (inactive)	73.3 µM (inactive)	–	> 100 µM (inactive)	39.5 µM (inactive)	30.5 µM (inactive)	72.6 µM (inactive)	40.5 µM (inactive)	57.7 µM (inactive)	23.8 µM (inactive)
NC(=O)c1ccc(Cl)c([N+](=O)[O-])c1	> 100 µM (inactive)	> 100 µM (inactive)	> 100 µM (inactive)	> 100 µM (inactive)	> 100 µM (inactive)	> 100 µM (inactive)	> 100 µM (inactive)	> 100 µM (inactive)	–	> 100 µM (inactive)	> 100 µM (inactive)	> 100 µM (inactive)	> 100 µM (inactive)	> 100 µM (inactive)	> 100 µM (inactive)	> 100 µM (inactive)	> 100 µM (inactive)
O=C(Nc1ccc(Cl)c(Cl)c1)C1C(=O)N(c2ccc(Cl)c(Cl)c2)C(=O)/C1=N\O (stereo not drawn)	44.5 µM (inactive)	> 100 µM (inactive)	19.3 µM (inactive)	> 100 µM (inactive)	24.5 µM (inactive)	> 100 µM (inactive)	70.1 µM (inactive)	> 100 µM (inactive)	> 100 µM (inactive)	> 100 µM (inactive)	> 100 µM (inactive)	61.8 µM (inactive)	> 100 µM (inactive)	49 µM (inactive)	66.8 µM (inactive)	> 100 µM (inactive)	–
CC1(C)CC(=O)C(=[N+]=[N-])C(=O)C1	> 100 µM (inactive)	–	> 100 µM (inactive)	> 100 µM (inactive)	> 100 µM (inactive)	> 100 µM (inactive)	> 100 µM (inactive)	> 100 µM (inactive)	> 100 µM (inactive)	–	> 100 µM (inactive)	> 100 µM (inactive)	> 100 µM (inactive)	> 100 µM (inactive)	–	> 100 µM (inactive)	> 100 µM (inactive)
CC(=O)NC1=C(NCCC(C)C)C(=O)c2ccccc2C1=O	> 50 µM (inactive)	–	> 50 µM (inactive)	> 50 µM (inactive)	> 50 µM (inactive)	45.9 µM (inactive)	> 50 µM (inactive)	> 50 µM (inactive)	> 50 µM (inactive)	> 50 µM (inactive)	> 50 µM (inactive)	> 50 µM (inactive)	> 50 µM (inactive)	> 50 µM (inactive)	> 50 µM (inactive)	> 50 µM (inactive)	> 50 µM (inactive)
